Legend:
human CA I = target: T1, human CA I (Homo sapiens, UniProt P00915); assay: CA I inhibition, CO2 hydration, Maren's micromethod (E-I technique); assay type: biochemical; settings: 0C, veronal buffer, calculated as for the monomer for complexes
T1 construct: purchased Sigma Chemical Co
Description: (§1) Introduction Sulfonamide inhibitors of the zinc enzyme carbonic anhydrase (CA, EC 4.2.1.1) are widely used pharmacological agents in the treatment of a variety of disorders. […] 3,11 As we are also interested in exploring the coordination chemistry of sulfonamide CA inhibitors, in addition to their pharmacological applications, 1,4,11 a study is reported here on the preparation and characterization of metal complexes containing 4 and divalent metal ions such as Co(II), Ni(II), Cu(II), Zn(II), and Cd(II). In fact 4 is the first disulfonamide for which such a study was done. Here we report the data on these new derivatives, as well as their inhibition properties against two isozymes, CA I and CA II. Mention should be made that CA I inhibition data for the parent ligand, 1,3,4-thiadiazole-2,5- disulfonamide are published here for the first time. Materials and Methods Melting points were recorded on a heating plate microscope and are not corrected. FTIR spectra were obtained on thin films of pure compound, with a Perkin Elmer 1600 instrument, in the range 200 4000 cm"1. Electronic spectra were obtained by the diffuse reflectance technique in MgO as reference, with a Perkin Elmer Lambda 17 apparatus. Conductimetric measurements were done in DMF solutions, at 25C (concentrations of 1 mM of complex) with a Fisher conductimeter. 1n- and 13C-NMR data were obtained in DMSO-d as solvent with a Varian Gemmini 300 spectrometer. Chemical shifts are expressed as values relative to tetramethylsilane as internal standard. […] Thermogravimetric measurements were done in air, at a heating rate of 10C/min., with a Perkin Elmer 3600 thermobalance. Sulfonamide 4 used in the syntheses was prepared as described earlier by us.11 Metal salts, organic reagents used for preparing the ligand 4 and solvents were from Aldrich and were used without additional purification. Bovine CA II and human CA I was from Sigma Chemical Co. Inhibitors were assayed by […] micromethod 12, in the conditions of the E-I (enzyme-inhibitor) technique, at 0C in veronal buffer. IC0 values represent the molarity of inhibitor producing a 50% decrease of CA specific activity for the CO2 hydration reaction. […] The precipitated complexes were filtered and air dried. […] According to our method 6a the coordination compounds of sulfonamides were prepared starting from the sodium salt of the ligand, in aqueous milieu, whereas according to Borras' group they were obtained in the presence of ammonia (or other amines, such as pyridine, ethylenediamine, imidazole, etc), in alcohol as solvent.14 In such cases, the amines are also coordinated to the metal ions, in addition to the sulfonamide ligands. In the present study, we prepared and characterized both types ofderivatives, working with the sodium salt of4, but also with the ligand in the presence of ammonia, in both cases in a 1:1 molar ratio ligand:metal salt. […] Table I: Complexes 5-14 prepared and their elemental analysis data (S stands for the doubly deprotonated species of sulfonamide 4). […] Table II: Spectroscopic, magnetic and conductimetric data for complexes 5-10 as compared to ligands 4. Comp. IR.

Bovine CA II = target: T2, Bovine CA II (Bos taurus, UniProt P00921); assay: CA II inhibition, CO2 hydration, Maren's micromethod (E-I technique); assay type: biochemical; settings: 0C, veronal buffer, calculated as for the monomer for complexes
T2 construct: purchased Sigma Chemical Co
T2 sequence (P00921 whole entry): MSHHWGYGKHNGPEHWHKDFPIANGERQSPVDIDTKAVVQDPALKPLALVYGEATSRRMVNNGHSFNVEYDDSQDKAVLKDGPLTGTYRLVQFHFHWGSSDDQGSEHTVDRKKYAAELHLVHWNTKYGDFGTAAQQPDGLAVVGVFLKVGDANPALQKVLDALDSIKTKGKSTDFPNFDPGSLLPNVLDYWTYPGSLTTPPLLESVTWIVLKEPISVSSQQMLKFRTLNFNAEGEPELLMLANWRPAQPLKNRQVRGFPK
Description: as §1

T1 sequence (P00915 whole entry): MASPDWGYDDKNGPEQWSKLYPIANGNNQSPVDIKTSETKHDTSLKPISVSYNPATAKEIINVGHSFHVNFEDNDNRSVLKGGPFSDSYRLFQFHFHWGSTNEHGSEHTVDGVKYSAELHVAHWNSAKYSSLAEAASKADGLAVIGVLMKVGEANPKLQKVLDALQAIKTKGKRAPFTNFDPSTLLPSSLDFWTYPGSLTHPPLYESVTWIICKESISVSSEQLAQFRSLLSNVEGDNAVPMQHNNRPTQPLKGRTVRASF

Substance | IC50 (human CA I) | IC50 (Bovine CA II)
[CuS(NH3)2] [Compound 12] | 185 nM | 27 nM
[NiS(OH2)2]n [Compound 6] | 390 nM | 45 nM
[CuS(OH2)2]n [Compound 7] | 175 nM | 24 nM
[NiS(NH3)2], [Compound 11] | 440 nM | 41 nM
[ZnS(NH3)2] [Compound 13] | 205 nM | 22 nM
[CdS(NH3)2]o [Compound 14] | 185 nM | 19 nM
[CdS(OH2)2] [Compound 9] | 180 nM | 17 nM
[CoS(NH3)2]n [Compound 10] | 360 nM | 42 nM
[ZnS] [Compound 8] | 210 nM | 28 nM

— paper PMC2364987 (Metal-Based Drugs, 1995)
